According to patent publication US20230322745A1, “FUSED TRICYCLIC DERIVATIVE AND PHARMACEUTICAL APPLICATION THEREOF” (CHIA TAI TIANQING PHARMACEUTICAL GROUP CO., LTD., priority 2020, published 2023):
Where a name gives a salt, the structure may show the parent alone. Read-outs that look alike come from different tables or passages of the source. Blank lines part the entries; values can stand above or below the compound they belong to.

Columns and labels:
[1] = biological target: β1 receptor (cells expressing human ADRB1 gene) (Homo sapiens (Human), UniProt P08588); experiment: Agonistic effect on β1 receptor by HTRF cAMP method; assay type: cell-based
Sequence of β1 receptor (cells expressing human ADRB1 gene) (P08588 whole entry): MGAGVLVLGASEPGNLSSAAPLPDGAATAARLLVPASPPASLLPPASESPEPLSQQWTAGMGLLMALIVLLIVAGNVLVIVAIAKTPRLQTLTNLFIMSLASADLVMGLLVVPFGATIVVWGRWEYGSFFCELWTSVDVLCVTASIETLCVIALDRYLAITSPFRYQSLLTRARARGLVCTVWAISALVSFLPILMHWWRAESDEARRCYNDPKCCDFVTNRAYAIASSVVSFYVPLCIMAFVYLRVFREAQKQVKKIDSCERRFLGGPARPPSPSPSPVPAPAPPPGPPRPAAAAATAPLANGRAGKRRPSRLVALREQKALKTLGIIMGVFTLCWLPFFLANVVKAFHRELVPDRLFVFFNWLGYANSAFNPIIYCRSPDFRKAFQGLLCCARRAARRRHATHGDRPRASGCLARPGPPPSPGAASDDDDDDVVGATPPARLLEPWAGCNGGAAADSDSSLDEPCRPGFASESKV
Procedure: (§1) β1 receptor is a G protein-coupled receptor, which is mainly coupled with Gs protein, and can activate adenylate cyclase activity through the Gs protein after being activated by binding to the ligand, thereby increasing the level of intracellular cAMP. In this experiment, the agonistic activity of the compounds against the β1 receptor in vitro was assayed by the cAMP kit.
(§2) β1 cells (expressing human ADRB1 gene) from ICE Bioscience Inc. were grown under standard conditions. The cells were collected and diluted with 1× Stimulation Buffer, and 9 μL of the cell dilution was added to a white low-volume 384-well plate with 4000 cells seeded in each well. Compounds were serially diluted in DMSO in a 5-fold gradient to obtain 10 concentrations. Before testing, compounds that had been serially diluted in DMSO were subjected to 100-fold dilution with 1× Stimulation Buffer to obtain compound working solutions. The concentration of the vehicle DMSO was 0.1%. Eu-cAMP and ULight™-anti-cAMP were diluted to the working concentration with Detection buffer. 5 μL of Eu-cAMP diluent and 5 μL of ULight™-anti-cAMP diluent were sequentially added into corresponding experiment wells. After 1 h of incubation at room temperature, readings at 665 nm and 620 nm were measured under the excitation wavelength of 330 nm using a Biotek microplate reader. The activity of the compounds was obtained by plotting through Ratio (665/620) against the concentration of the compounds, fitting the curve by a nonlinear regression method using GraphPad Prism 7 software and calculating EC50.

[2] = biological target: β2 receptor (cells expressing human ADRB2 gene) (Homo sapiens (Human), UniProt P07550); experiment: Agonistic effect on β2 receptor by HTRF cAMP method; assay type: cell-based
Sequence of β2 receptor (cells expressing human ADRB2 gene) (P07550 whole entry): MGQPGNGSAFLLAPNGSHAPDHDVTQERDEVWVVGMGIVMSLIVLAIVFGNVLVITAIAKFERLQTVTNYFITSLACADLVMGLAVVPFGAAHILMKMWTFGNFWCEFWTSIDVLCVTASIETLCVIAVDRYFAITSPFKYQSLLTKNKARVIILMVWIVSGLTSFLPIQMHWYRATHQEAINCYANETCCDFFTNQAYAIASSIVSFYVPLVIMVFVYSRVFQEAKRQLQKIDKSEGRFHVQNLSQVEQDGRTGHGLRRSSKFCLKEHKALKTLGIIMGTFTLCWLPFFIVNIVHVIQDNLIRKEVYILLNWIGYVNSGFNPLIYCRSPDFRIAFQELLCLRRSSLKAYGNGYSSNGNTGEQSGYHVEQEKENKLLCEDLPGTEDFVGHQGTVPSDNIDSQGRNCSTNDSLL
Procedure: as §1, with “β2” for “β1”
as §2, with “β2” for “β1”, “ADRB2” for “ADRB1”, “1000” for “4000”

M3 receptor = M3 receptor (Homo sapiens (Human), UniProt P20309); experiment: M3 receptor affinity test (3H-NMS competition); assay type: binding
Sequence of M3 receptor (P20309 whole entry): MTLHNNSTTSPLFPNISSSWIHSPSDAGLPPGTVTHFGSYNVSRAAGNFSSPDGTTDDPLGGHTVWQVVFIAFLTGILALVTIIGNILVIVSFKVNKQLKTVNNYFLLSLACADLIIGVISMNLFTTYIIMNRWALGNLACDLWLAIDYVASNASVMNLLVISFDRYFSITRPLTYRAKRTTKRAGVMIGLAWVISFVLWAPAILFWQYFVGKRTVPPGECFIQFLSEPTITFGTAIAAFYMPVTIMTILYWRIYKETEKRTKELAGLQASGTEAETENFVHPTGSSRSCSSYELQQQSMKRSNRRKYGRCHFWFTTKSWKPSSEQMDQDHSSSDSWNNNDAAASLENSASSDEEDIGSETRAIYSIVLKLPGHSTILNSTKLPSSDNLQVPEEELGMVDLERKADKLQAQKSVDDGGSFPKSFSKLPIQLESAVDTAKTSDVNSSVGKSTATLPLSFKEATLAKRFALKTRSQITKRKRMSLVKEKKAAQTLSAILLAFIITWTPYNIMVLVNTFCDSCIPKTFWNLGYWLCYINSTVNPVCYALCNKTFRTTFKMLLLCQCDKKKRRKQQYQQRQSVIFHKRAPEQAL
Procedure: M3 receptor is a G protein-coupled receptor. In this experiment, the activity of test compounds against the M3 receptor in vitro was assayed by the competition of radioisotope labeled NMS and non-isotope labeled test compounds for an M3 binding site.
(§3) The experiment was performed by a radioisotope affinity assay. The M3 receptor membrane protein was prepared at 10 μg/mL by Biology Department of WuXi AppTec, and compounds were serially diluted in a 2.5-fold gradient in DMSO to obtain 10 concentrations. Radioisotope 3H-NMS was prepared at 0.2 nM in an assay buffer (10 mM HEPES, 1 mM MgCl2, pH 7.40). In formal testing, the experimental system comprising 1 of the test compound, 100 μL of M3 receptor membrane protein and 100 μL of radioisotope was shaken in a shaker at 300 RPM for 2 h at room temperature. A GF/C plate (Perkin Elmer, Cat No. 6055690) was prefoamed with 0.3% PEI, and the membrane proteins in the reaction solution were collected by filtration onto the GF/C plate. The signal values were read by a Perkin Elmer Microbeta2 instrument and the inhibition rate for each concentration point was shown as a percentage.

[3] = Pharmacokinetic evaluation in SD rats; assay type: in vivo; settings: male, rat, plasma; for clearance / AUC / half-life: 10% aqueous HPβCD; for clearance: read-out: Clearance rate for administration by intravenous injection; for bioavailability: intra-tracheal 5 mpk vs intravenous 2 mpk, read-out: Bioavailability F for intra-tracheal administration with a nebulizer needle; for half-life: read-out: Half life T1/2 for intra-tracheal administration with a nebulizer needle (converted)
Procedure: To test pharmacokinetics of test compounds in SD rats
SD rats (male, 200-250 g, 7-9 weeks old, Beijing Vital River Laboratory Animal Technology Co., Ltd.)
A formulation containing 10% aqueous HPβCD solution as a vehicle was administered by intravenous injection (2 mpk), and a formulation containing 10% aqueous HPβCD solution as a vehicle was administered by intra-tracheal administration (5 mpk) with a nebulizer needle. Before the animal experiment, all animals were fed normally; and all animals were given free access to water. Blood collection time points were as follows: intravenous administration group: 0.083 h, 0.25 h, 0.5 h, 1 h, 2 h, 4 h, 8 h, and 24 h; nebulizer needle administration group: 0.083 h, 0.25 h, 0.5 h, 1 h, 2 h, 4 h, 8 h, and 24 h.
Whole blood samples (0.25 mL) were collected via the jugular vein (or other suitable collection site) at prescribed time points, and all blood samples were added to labeled plastic centrifuge tubes containing a K2-EDTA anticoagulant. After blood collection, plasma was separated by centrifugation and placed in dry ice rapidly, and the samples were stored at low temperature. All samples were analyzed by LC-MS/MS with a limit of detection of 4 nM. The mean concentration of plasma was processed using a non-compartmental model of the pharmacokinetic software WinNonlin™ Version 6.3 (Pharsight, Mountain View, CA), and pharmacokinetic parameters were calculated by a linear log-trapezoidal method.

M2 receptor = M2 receptor (Homo sapiens (Human), UniProt P08172); experiment: M2 receptor affinity test (3H-NMS competition); assay type: binding
Sequence of M2 receptor (P08172 whole entry): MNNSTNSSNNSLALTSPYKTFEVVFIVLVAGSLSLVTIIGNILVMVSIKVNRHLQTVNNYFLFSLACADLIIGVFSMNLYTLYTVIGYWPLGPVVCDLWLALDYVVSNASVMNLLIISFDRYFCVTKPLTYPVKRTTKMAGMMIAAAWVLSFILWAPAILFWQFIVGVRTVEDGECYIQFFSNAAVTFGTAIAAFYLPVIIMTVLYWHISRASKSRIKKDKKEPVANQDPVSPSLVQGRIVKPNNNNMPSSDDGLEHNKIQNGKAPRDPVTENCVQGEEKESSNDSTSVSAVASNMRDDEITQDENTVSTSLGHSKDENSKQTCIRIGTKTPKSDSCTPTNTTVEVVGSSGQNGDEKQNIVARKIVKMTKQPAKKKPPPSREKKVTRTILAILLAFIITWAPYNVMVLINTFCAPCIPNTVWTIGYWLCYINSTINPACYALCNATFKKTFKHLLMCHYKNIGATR
Procedure: M2 receptor is a G protein-coupled receptor. In this experiment, the activity of test compounds against the M2 receptor in vitro was assayed by the competition of radioisotope labeled NMS and non-isotope labeled test compounds for an M2 binding site.
as §3, with “The M2 receptor membrane” for “The experiment was performed by a radioisotope affinity assay. The M3 receptor membrane”, “prepared at 100 μg/mL by” for “prepared at 10 μg/mL by”, “comprising 1 μL of the” for “comprising 1 of the”, “μL of M2 receptor membrane” for “μL of M3 receptor membrane”

[4] = HTRF cAMP, 1 h incubation at room temperature, read-out: EC50, agonistic activity against the β2 receptor in vitro
[5] = read-out: IC50, activity against the M3 receptor in vitro
[6] = 2 mg/kg, intravenous injection 2 mpk
[7] = 2 mg/kg, intravenous injection 2 mpk, read-out: Concentration integration AUC for administration by intravenous injection
[8] = inhaled or intranasal, 5 mg/kg, intra-tracheal 5 mpk, read-out: Concentration integration AUC for intra-tracheal administration with a nebulizer needle
[9] = inhaled or intranasal, 5 mg/kg, intra-tracheal 5 mpk

Compound: O=C(OC1CCC2(CC1)CN(CCCn1nnc3cc(CNC[C@H](O)c4ccc(O)c5[nH]c(=O)ccc45)c4c(c31)CCC4)C2)C(O)(c1cccs1)c1cccs1 [Formate salt of compound 4]
EC50 [1]: 304 nM
EC50 [2, 4]: 2.15 nM
IC50 (M3 receptor; [5]): 0.343 nM

clearance [3, 6]: 35 mL/min/kg
AUC [3, 7]: 1.27 µM·h
bioavailability ([3]; inhaled or intranasal, 5 mg/kg): 76.7%
AUC [3, 8]: 2.44 µM·h
half-life [3, 9]: 30.9 min
Compound: CN(CCCn1nnc2cc(CNC[C@H](O)c3ccc(O)c4[nH]c(=O)ccc34)ccc21)[C@H]1CC[C@H](OC(=O)C(O)(c2cccs2)c2cccs2)CC1 [Hydrofluoride salt of AZD8871, reference compound]

Compound: Cn1ncc2c(CNC[C@H](O)c3ccc(O)c4[nH]c(=O)ccc34)cc3nnn(CCCN(C)[C@H]4CC[C@H](OC(=O)C(O)(c5cccs5)c5cccs5)CC4)c3c21 [Compound 11]
EC50 [1]: 33.7 nM
EC50 [2, 4]: 1.12 nM
IC50 (M3 receptor; [5]): 0.638 nM

EC50 ([1]; HTRF cAMP, 1 h incubation at room temperature, read-out: EC50, agonistic activity against the β1 receptor in vitro): 145 nM
EC50 [2, 4]: 1.57 nM
IC50 (M3 receptor; 0.2 nM 3H-NMS, M3 receptor membrane protein, 2 h at room temperature, read-out: IC50, activity against the M3 receptor in vitro): 1.2 nM
IC50 (M2 receptor; 0.2 nM 3H-NMS, M2 receptor membrane protein, 2 h at room temperature, read-out: IC50, activity against the M2 receptor in vitro): 0.814 nM
Compound: Cc1ccc(C(O)(C(=O)C[C@H]2CC[C@H](N(C)CCCn3nnc4cc(CNC[C@H](O)c5ccc(O)c6[nH]c(=O)ccc56)c5c(c43)CCC5)CC2)c2ccc(C)s2)s1 [Formate salt of compound 32]

Compound: CN(CCCn1nnc2cc(CNC[C@H](O)c3ccc(O)c4[nH]c(=O)ccc34)c3c(c21)OCCO3)[C@H]1CC[C@H](OC(=O)C(O)(c2cccs2)c2cccs2)CC1 [Formate salt of compound 12]
EC50 [1]: 127 nM
EC50 [2, 4]: 2.04 nM

Compound: O=C(OCC1(O)CCN(CCCn2nnc3cc(CNC[C@H](O)c4ccc(O)c5[nH]c(=O)ccc45)c4c(c32)CCC4)CC1)C(O)(c1cccs1)c1cccs1 [Formate salt of compound 31]
IC50 (M3 receptor; [5]): 0.655 nM

Compound: CN(CCCn1cnc2cc(CNC[C@H](O)c3ccc(O)c4[nH]c(=O)ccc34)c3c(c21)CCC3)[C@H]1CC[C@H](OC(=O)C(O)(c2cccs2)c2cccs2)CC1 [Formate salt of compound 41]
EC50 [1]: 229 nM
EC50 [2]: 13.8 nM
IC50 (M3 receptor): 0.201 nM
IC50 (M2 receptor): 0.268 nM

Compound: CN(CCCn1nnc2cc(CNC[C@H](O)c3ccc(O)c4[nH]c(=O)ccc34)c3c(c21)CCC3)[C@H]1CC[C@H](OC(=O)C(O)(c2cccs2)c2cccs2)CC1 [Trifluoroacetate salt of compound 1]
EC50 [1]: 84.5 nM
EC50 [2, 4]: 3.47 nM
IC50 (M3 receptor; [5]): 0.384 nM
IC50 (M2 receptor): 0.062 nM
clearance [3, 6]: 62.8 mL/min/kg
AUC [3, 7]: 0.681 µM·h
bioavailability ([3]; inhaled or intranasal, 5 mg/kg): 153%
AUC [3, 8]: 2.61 µM·h
half-life [3, 9]: 82.8 min

Compound: O=C(OC1CC2(C1)CN(CCCn1nnc3cc(CNC[C@H](O)c4ccc(O)c5[nH]c(=O)ccc45)c4c(c31)CCC4)C2)C(O)(c1cccs1)c1cccs1 [Formate salt of compound 2]
EC50 [1]: 157 nM
EC50 [2, 4]: 0.889 nM
IC50 (M3 receptor; [5]): 0.347 nM

Compound: O=C(OC1CC2(CCN(CCCn3nnc4cc(CNC[C@H](O)c5ccc(O)c6[nH]c(=O)ccc56)c5c(c43)CCC5)CC2)C1)C(O)(c1ccc(Cl)s1)c1ccc(Cl)s1 [Formate salt of compound 19]
EC50 [1]: 1440 nM
EC50 [2, 4]: 5.14 nM
IC50 (M3 receptor; [5]): 0.281 nM

Compound: CN(CCCn1nnc2cc(CNC[C@H](O)c3ccc(O)c4[nH]c(=O)ccc34)c3c(c21)CCC3)[C@H]1CC[C@H](OC(=O)C(O)(c2ccc(Cl)s2)c2ccc(Cl)s2)CC1 [Trifluoroacetate salt of compound 10]
EC50 [1]: 269 nM
EC50 [2, 4]: 1.36 nM
IC50 (M3 receptor; [5]): 1.27 nM

Compound: C[N+]1(CCCn2nnc3cc(CNC[C@H](O)c4ccc(O)c5[nH]c(=O)ccc45)c4c(c32)CCC4)CCC(OC(=O)C(O)(c2cccs2)c2cccs2)CC1 (stereo partly shown) [Hydrobromide salt of compound 30]
EC50 [1]: 94.9 nM

Compound: CN(CCCn1nnc2cc(CNC[C@H](O)c3ccc(O)c4[nH]c(=O)ccc34)c3c(c21)OCO3)[C@H]1CC[C@H](OC(=O)C(O)(c2cccs2)c2cccs2)CC1 [Formate salt of compound 33]
EC50 [1]: 53.1 nM
EC50 [2]: 0.742 nM
IC50 (M3 receptor): 0.494 nM
IC50 (M2 receptor): 0.153 nM

Compound: CN(CCCn1nnc2cc(CNC[C@H](O)c3ccc(O)c4[nH]c(=O)ccc34)c3c(c21)COC3)[C@H]1CC[C@H](OC(=O)C(O)(c2cccs2)c2cccs2)CC1 [Formate salt of compound 40]
EC50 [1]: 56.7 nM
EC50 [2]: 2.8 nM
IC50 (M3 receptor): 0.363 nM
IC50 (M2 receptor): 0.228 nM
